# Test results reported in PubChem BioAssay (NCI).
#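 Step 1: Grow cells in 96-well plates. Step 2: Expose to compound for 48 hours at 5 concentrations. Step 3: Interpolate endpoints linearly; if unreached, use highest concentration. TGI: total growth inhibition.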
# Assays:
# Assay in all cases: growth of human tumour cells (NCI), 48 h
# OVCAR-8 ovarian = tested on: OVCAR-8 ovarian
# XF 498 CNS = tested on: XF 498 CNS
# HT29 colon = tested on: HT29 colon
# SNB-78 CNS = tested on: SNB-78 CNS
# CCRF-CEM leukemia = tested on: CCRF-CEM leukemia
# SK-MEL-5 melanoma = tested on: SK-MEL-5 melanoma
# LOX IMVI melanoma = tested on: LOX IMVI melanoma
# OVCAR-4 ovarian = tested on: OVCAR-4 ovarian
# SF-268 CNS = tested on: SF-268 CNS
# SF-539 CNS = tested on: SF-539 CNS
# DMS 114 small cell lung = tested on: DMS 114 small cell lung
# A549 NSCLC = tested on: A549 NSCLC
# UACC-257 melanoma = tested on: UACC-257 melanoma
# SK-OV-3 ovarian = tested on: SK-OV-3 ovarian
# SK-MEL-28 melanoma = tested on: SK-MEL-28 melanoma
# NCI-H460 lung = tested on: NCI-H460 lung
# HCT-15 colon = tested on: HCT-15 colon
# 786-0 renal = tested on: 786-0 renal
# UACC-62 melanoma = tested on: UACC-62 melanoma
# DMS 273 small cell lung = tested on: DMS 273 small cell lung
# HCT-116 colon = tested on: HCT-116 colon
# NCI-H226 lung = tested on: NCI-H226 lung
# U251 CNS = tested on: U251 CNS
# KM12 colon = tested on: KM12 colon
# SF-295 CNS = tested on: SF-295 CNS
# OVCAR-3 ovarian = tested on: OVCAR-3 ovarian
# NCI-H522 lung = tested on: NCI-H522 lung
# RXF 393 renal = tested on: RXF 393 renal
# LXFL 529 NSCLC = tested on: LXFL 529 NSCLC
# SN12C renal = tested on: SN12C renal
# HOP-18 NSCLC = tested on: HOP-18 NSCLC
# SK-MEL-2 melanoma = tested on: SK-MEL-2 melanoma
# SW-620 colon = tested on: SW-620 colon
# SNB-75 CNS = tested on: SNB-75 CNS
# M14 melanoma = tested on: M14 melanoma
# MALME-3M melanoma = tested on: MALME-3M melanoma
# ACHN renal = tested on: ACHN renal
# K-562 leukemia = tested on: K-562 leukemia
# DLD-1 colon = tested on: DLD-1 colon
# NCI-H23 lung = tested on: NCI-H23 lung
# IGROV1 ovarian = tested on: IGROV1 ovarian
# SNB-19 CNS = tested on: SNB-19 CNS
# MOLT-4 leukemia = tested on: MOLT-4 leukemia
# TK-10 renal = tested on: TK-10 renal
# SR leukemia = tested on: SR leukemia
# RPMI-8226 leukemia = tested on: RPMI-8226 leukemia
# HL-60(TB) leukemia = tested on: HL-60(TB) leukemia
# HS 578T breast = tested on: HS 578T breast
# HCC-2998 colon = tested on: HCC-2998 colon
# M19-MEL melanoma = tested on: M19-MEL melanoma
# T-47D breast = tested on: T-47D breast
# HOP-92 NSCLC = tested on: HOP-92 NSCLC
# BT-549 breast = tested on: BT-549 breast
# MDA-MB-435 = tested on: MDA-MB-435
# UO-31 renal = tested on: UO-31 renal
# OVCAR-5 ovarian = tested on: OVCAR-5 ovarian
# DU-145 prostate = tested on: DU-145 prostate
# CAKI-1 renal = tested on: CAKI-1 renal
# COLO 205 colon = tested on: COLO 205 colon
# A498 renal = tested on: A498 renal
# KM20L2 colon = tested on: KM20L2 colon
# EKVX NSCLC = tested on: EKVX NSCLC
# HOP-62 NSCLC = tested on: HOP-62 NSCLC
smiles,measurement,setting,value
CN(C)CCCNC(=O)N/N=C/c1cccc([N+](=O)[O-])c1,TGI,OVCAR-8 ovarian,> 100 µM
same,TGI,XF 498 CNS,> 100 µM
same,TGI,HT29 colon,> 100 µM
same,TGI,SNB-78 CNS,> 100 µM
same,TGI,CCRF-CEM leukemia,> 100 µM
same,TGI,SK-MEL-5 melanoma,> 100 µM
same,TGI,LOX IMVI melanoma,> 100 µM
same,TGI,OVCAR-4 ovarian,> 100 µM
same,TGI,SF-268 CNS,> 100 µM
same,TGI,SF-539 CNS,> 100 µM
same,TGI,DMS 114 small cell lung,> 100 µM
same,TGI,A549 NSCLC,> 100 µM
same,TGI,UACC-257 melanoma,> 100 µM
same,TGI,SK-OV-3 ovarian,> 100 µM
same,TGI,SK-MEL-28 melanoma,> 100 µM
same,TGI,NCI-H460 lung,> 100 µM
same,TGI,HCT-15 colon,> 100 µM
same,TGI,786-0 renal,> 100 µM
same,TGI,UACC-62 melanoma,> 100 µM
same,TGI,DMS 273 small cell lung,> 100 µM
same,TGI,HCT-116 colon,> 100 µM
same,TGI,NCI-H226 lung,> 100 µM
same,TGI,U251 CNS,> 100 µM
same,TGI,KM12 colon,> 100 µM
same,TGI,SF-295 CNS,> 100 µM
same,TGI,OVCAR-3 ovarian,> 100 µM
same,TGI,NCI-H522 lung,> 100 µM
same,TGI,RXF 393 renal,> 100 µM
same,TGI,LXFL 529 NSCLC,> 100 µM
same,TGI,SN12C renal,> 100 µM
same,TGI,HOP-18 NSCLC,> 100 µM
same,TGI,SK-MEL-2 melanoma,> 100 µM
same,TGI,SW-620 colon,> 100 µM
same,TGI,SNB-75 CNS,> 100 µM
same,TGI,M14 melanoma,> 100 µM
same,TGI,MALME-3M melanoma,> 100 µM
same,TGI,ACHN renal,> 100 µM
same,TGI,K-562 leukemia,> 100 µM
same,TGI,DLD-1 colon,> 100 µM
same,TGI,NCI-H23 lung,> 100 µM
same,TGI,IGROV1 ovarian,> 100 µM
same,TGI,SNB-19 CNS,> 100 µM
same,TGI,MOLT-4 leukemia,> 100 µM
same,TGI,TK-10 renal,> 100 µM
C=C1CC2OC2(C(=O)O[C@H]2CCC3[C@@H]4CCC5=CC(=O)CC[C@]5(C)C4CC[C@@]32C)C1=O (some centres not stated),TGI,OVCAR-8 ovarian,45.1 µM
same,TGI,SR leukemia,7.65 µM
same,TGI,RPMI-8226 leukemia,5.79 µM
same,TGI,HL-60(TB) leukemia,3.93 µM
same,TGI,HS 578T breast,45.1 µM
same,TGI,XF 498 CNS,9.92 µM
same,TGI,HT29 colon,24.3 µM
same,TGI,SNB-78 CNS,19.5 µM
same,TGI,CCRF-CEM leukemia,12.7 µM
same,TGI,HCC-2998 colon,74.5 µM
same,TGI,SK-MEL-5 melanoma,27.6 µM
same,TGI,M19-MEL melanoma,31.7 µM
same,TGI,T-47D breast,14.2 µM
same,TGI,LOX IMVI melanoma,21.1 µM
same,TGI,OVCAR-4 ovarian,18.4 µM
same,TGI,SF-268 CNS,18.2 µM
same,TGI,SF-539 CNS,18.1 µM
same,TGI,HOP-92 NSCLC,23.5 µM
same,TGI,DMS 114 small cell lung,10.4 µM
same,TGI,BT-549 breast,41.9 µM
same,TGI,A549 NSCLC,43 µM
same,TGI,MDA-MB-435,48.7 µM
same,TGI,UACC-257 melanoma,18.3 µM
same,TGI,SK-OV-3 ovarian,38.8 µM
same,TGI,SK-MEL-28 melanoma,17.8 µM
same,TGI,NCI-H460 lung,28.9 µM
same,TGI,HCT-15 colon,23.1 µM
same,TGI,786-0 renal,4.83 µM
same,TGI,UACC-62 melanoma,28.7 µM
same,TGI,DMS 273 small cell lung,9.15 µM
same,TGI,HCT-116 colon,13.8 µM
same,TGI,NCI-H226 lung,55.5 µM
same,TGI,UO-31 renal,15.4 µM
same,TGI,U251 CNS,21.2 µM
same,TGI,OVCAR-5 ovarian,38.4 µM
same,TGI,DU-145 prostate,32.9 µM
same,TGI,KM12 colon,32 µM
same,TGI,SF-295 CNS,42.8 µM
same,TGI,OVCAR-3 ovarian,21.8 µM
same,TGI,NCI-H522 lung,8 µM
same,TGI,CAKI-1 renal,25 µM
same,TGI,RXF 393 renal,10.9 µM
same,TGI,LXFL 529 NSCLC,6.08 µM
same,TGI,SN12C renal,13.9 µM
same,TGI,HOP-18 NSCLC,12.7 µM
same,TGI,SK-MEL-2 melanoma,15.1 µM
same,TGI,SW-620 colon,11.8 µM
same,TGI,COLO 205 colon,15.5 µM
same,TGI,SNB-75 CNS,33.9 µM
same,TGI,M14 melanoma,16.6 µM
same,TGI,MALME-3M melanoma,16.5 µM
same,TGI,ACHN renal,16.2 µM
same,TGI,A498 renal,30.6 µM
same,TGI,KM20L2 colon,16.2 µM
same,TGI,EKVX NSCLC,48 µM
same,TGI,K-562 leukemia,7.03 µM
same,TGI,DLD-1 colon,16.5 µM
same,TGI,NCI-H23 lung,27.3 µM
same,TGI,HOP-62 NSCLC,44.4 µM
same,TGI,IGROV1 ovarian,25.6 µM
same,TGI,SNB-19 CNS,36.3 µM
same,TGI,MOLT-4 leukemia,5.96 µM
same,TGI,TK-10 renal,15.1 µM
